In patent publication US4774232A, “Bile-substituting method of treatment for the promotion of fat digestion” (Chinoin Gyogyszer Es Vegyeszeti Termak Ek Gyara Rt, priority 1985, dated 1988):

System: bile duct-ligated rabbits
Experiment: Substitution of the bile in bile duct-ligated rabbits (plasma triglyceride)
Format: in vivo, rabbits (Orychtolagus cuniculus)
Conditions: for Plasma triglyceride concentration: rabbits after bile duct ligature
Description: The triglyceride concentration of the plasma was determined by using the method of E. Van Handel [Clin. Chem.. 7, 249 (1961)], whereas the concentration of the free fatty acids was measured according to W. G. Dumcombe [Biochem. J. 88, 7 (1963)].
The experimental animals were prevented in using their own bile for digestion of lipids by ligating their bile duct. Triglyceride concentration of the blood plasma was investigated after oral administration of lipids under normal pancreas secretion.
The experimental rabbits (Orychtolagus cuniculus) were kept at a standard food fo 10 days before the experiment. The organic material composition of the animal food was as follows:
The energy content of 100 g of the food amounted to […]. The animals were starved for 12 to 24 hours before the surgical operations but received water ad libitum. Within the same experimental series, rabbits of the same sex with a body weight of 2500 to 3000 g were used and the surgical operations were concurrently carried out. Pseudo-operated animals were used as controls. The operated experimental animals were used for the investigations after 48 hours. The test substances were orally administered to the animals through a gastric tube. The blood samples were taken from the auricular marginal vene.
In the first series of experiments, the first group of animals were given 3 ml of sunflower oil, the second group of animals were given 3 ml of sunflower oil and 200 mg of DIMEB dissolved in 3 ml of water. The control (speudo-operated) animals received 6 ml of water.
It is known that the digestion of the fats is a slower process than that of the oils. Thus, in the second series of experiments, the changes of the plasma triglyceride concentration of bile duct-ligated rabbits were followed after the oral administration of 5 ml of swine fat and 5 ml of swine fat together with 300 mg of DIMEB, respectively. The control group was given 5 ml of water (Table V). The quantity of the triglycerides was increased by about 100 percent as compared to the other two groups within one hour following the treatment. This tendency permanently remained during the experimental period lasting 6 hours.

Compound: COC[C@H]1O[C@@H]2O[C@H]3[C@H](O)[C@@H](OC)[C@@H](O[C@H]4[C@H](O)[C@@H](OC)[C@@H](O[C@H]5[C@H](O)[C@@H](OC)[C@@H](O[C@H]6[C@H](O)[C@@H](OC)[C@@H](O[C@H]7[C@H](O)[C@@H](OC)[C@@H](O[C@H]8[C@H](O)[C@@H](OC)[C@@H](O[C@H]1[C@H](O)[C@H]2OC)O[C@@H]8COC)O[C@@H]7COC)O[C@@H]6COC)O[C@@H]5COC)O[C@@H]4COC)O[C@@H]3COC [DIMEB, heptakis(2,6-di-O-methyl)-β-cyclodextrin]
- Plasma triglyceride concentration compared with the group treated with oil alone (bile duct-ligated rabbits, 3 ml sunflower oil + 200 mg DIMEB, 6th hour): nearly three-fold
- Increase of the quantity of plasma triglycerides compared to the other two groups (bile duct-ligated rabbits, 5 ml swine fat + 300 mg DIMEB, within one hour following the treatment): about 100%
- Plasma triglyceride concentration (3 ml sunflower oil + 200 mg DIMEB oral, Hour 0): 52 ± 19 mg/100 ml
- Plasma triglyceride concentration (3 ml sunflower oil + 200 mg DIMEB oral, Hour 1): 96 ± 32 mg/100 ml
- Plasma triglyceride concentration (3 ml sunflower oil + 200 mg DIMEB oral, Hour 2.5): 87 ± 30 mg/100 ml
- Plasma triglyceride concentration (3 ml sunflower oil + 200 mg DIMEB oral, Hour 4): 61 ± 14 mg/100 ml
- Plasma triglyceride concentration (3 ml sunflower oil + 200 mg DIMEB oral, Hour 6): 125 ± 3 mg/100 ml
- Plasma triglyceride concentration (5 ml swine fat + 300 mg DIMEB oral, Hour 0): 58 ± 19 mg/100 ml
- Plasma triglyceride concentration (5 ml swine fat + 300 mg DIMEB oral, Hour 1): 104 ± 30 mg/100 ml
- Plasma triglyceride concentration (5 ml swine fat + 300 mg DIMEB oral, Hour 2.5): 92 ± 26 mg/100 ml
- Plasma triglyceride concentration (5 ml swine fat + 300 mg DIMEB oral, Hour 4): 83 ± 25 mg/100 ml
- Plasma triglyceride concentration (5 ml swine fat + 300 mg DIMEB oral, Hour 6): 125 ± 3 mg/100 ml
